Measurements reported in PubChem BioAssay AID1576 (EPA DSSTox, 2009).
Calls of active or inactive are those of the source.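 How the source made its calls: active means chemicals shown by follow-up kinetic tests to compete for rat estrogen receptor sites, with a measured inhibition constant; inconclusive means some binding seen but constant unmeasurable owing to poor solubility; inactive means no binding up to top dose, or binding unconfirmed.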

Target: Estrogen receptor (Rattus norvegicus) (UniProt P06211)
Sequence (P06211 whole entry, looked up): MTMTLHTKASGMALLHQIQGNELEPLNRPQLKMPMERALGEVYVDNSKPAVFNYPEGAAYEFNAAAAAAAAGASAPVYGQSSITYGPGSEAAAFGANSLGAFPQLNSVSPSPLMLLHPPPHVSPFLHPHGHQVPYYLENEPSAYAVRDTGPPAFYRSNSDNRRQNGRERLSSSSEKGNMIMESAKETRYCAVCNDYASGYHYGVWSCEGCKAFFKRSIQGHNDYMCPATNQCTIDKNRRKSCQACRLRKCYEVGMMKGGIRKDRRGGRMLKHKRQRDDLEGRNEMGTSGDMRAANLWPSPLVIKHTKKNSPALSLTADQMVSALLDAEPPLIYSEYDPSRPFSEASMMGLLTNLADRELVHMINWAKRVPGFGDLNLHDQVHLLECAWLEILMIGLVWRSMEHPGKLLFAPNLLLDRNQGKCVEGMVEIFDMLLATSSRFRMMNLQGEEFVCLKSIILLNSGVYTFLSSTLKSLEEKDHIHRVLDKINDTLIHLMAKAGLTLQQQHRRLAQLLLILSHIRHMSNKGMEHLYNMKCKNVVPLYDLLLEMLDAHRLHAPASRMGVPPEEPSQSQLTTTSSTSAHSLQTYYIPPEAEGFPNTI
Test: DSSTox (KIERBL) EPA Estrogen Receptor Ki Binding Study (Laws et al.) Database
Conditions: Rat uterine cytosol ER, 3H-estradiol competitive binding
Method: This study was conducted by EPA researchers to evaluate the validity of the rat uterine cytosolic (RUC) estrogen receptor (ER) competitive binding assay for use in the Endocrine Disruption Screening Program (EDSP). The assay measures the ability of radiolabeled 17-beta-estradiol (3H-E2) to bind with RUC ER in the presence of increasing concentrations of a test chemical. The goal is to employ this in vitro assay as a 1st tier screening tool for assessing the potential of structurally diverse environmental chemicals to bind to the ER, as well as to support research efforts to develop computational models to predict ER binding. A distinguishing feature of the present study was the use of secondary experimental analysis of binding curves and determination of Ki values to confirm that measured IC50 values corresponded to true positive results. The study concluded that a number of experimental conditions can confound interpretation of IC50 values obtained from the RUC ER-binding assay data and lead to false positive results. In particular, some chemical treatments likely alter the stability of the assay by changing the buffer pH, denaturing ER, or disrupting the ER binding kinetics. […] The chemicals used in this study were selected as part of a validation test for two Quantitative Structure-Activity Relationship (QSAR) models designed to predict ER binding [Fed. Reg. 67(250), 79618, Dec. 30, 2002]. Several hundred chemicals were initially screened, including approximately 100 chemicals selected from among the High Production Volume (HPV) chemicals included in EPA's Toxic Substances Control Act (TSCA) inventory that were predicted to be positive for ER binding, with the rest selected at random from the TSCA inventory. All chemicals were initially tested in ER competitive binding assays by Battelle Pacific Northwest Laboratories, Richland, Washington [EPA Contract Number 68-W-99-033, Task 6]. Approximately 50 chemicals produced binding curves that: (1) strongly implied competitive inhibition of ER binding, or (2) produced partial curves or irregular (non-sigmoid) binding curves. These chemicals were further evaluated in an ER competitive binding assay with secondary analysis to confirm true competitive inhibition and to determine an experimental Ki [U.S. EPA Contract 3D-5967-NTEX]. The results of RUC ER screening for these 50 structurally diverse chemicals, for which secondary confirmatory analyses were performed, were published in the Main Citation (Laws et al., 2006, Tox. Sci. 94:46-56). The remaining 228 chemicals were designated as non-binders based on initial screening studies.
The DSSTox KIERBL data files include all published IC50 and Ki experimental results for the 50 chemicals included in the Main Citation (Laws et al., 2006) (denoted Group 1), as well as previously unpublished results for an additional 228 structually diverse TSCA chemicals for which no ER binding was observed (denoted Group 2. IC50 values were determined for 32 compounds in Group 1 as the concentration of a test chemical that inhibits the maximal specific binding of 0.33 nM radiolabeled (3H) 17-beta-estradiol (E2) to rat uterine cytosolic (RUC) estrogen receptor (ER) by 50%. Confirmation of binding status was accomplished by secondary analysis using Lineweaver-Burk plots and slope replots to determine true competitive inhibition and an experimental Ki value. Ki is the inhibition constant for the test chemical, i.e., the concentration of the test chemical that will bind to half the binding sites at equilibrium (displacing half of the probe-bound receptors), in the absence of radioligand or other competitors. Ki reported as Mean +/- Standard Error from n=2 experiments (see StandardError_Ki_n2) and is determined from Lineweaver-Burk plots over the tested dose range (TestedRange_microM). For more information see BindingCurve_Group and BindingCurve_Details. […]

Q: With `O=C(O)c1c(Cl)c(Cl)c(Cl)c(Cl)c1C1c2cc(Br)c(O)c(Br)c2Oc2c1cc(Br)c(O)c2Br` as the compound, how does the outcome read?
A: Its outcome is “inactive; none”.

Q: `CN(C)C(=O)Nc1ccc(Cl)c(Cl)c1` was tested. Which outcome did it give?
A: The outcome was “inactive; none”.

Q: How did the outcome turn out when `OCCOCCOCCO` was run?
A: The outcome was “inactive; none”.

Q: `O=C1CCC(=O)N1Br` was tested. Which outcome did it give?
A: The outcome was “inactive; none”.

Q: `CCCCCCCCCC#N` was tested. Which outcome did it give?
A: The outcome was “inactive; none”.

Q: `CCC(C)N` (configuration not stated) was tested. Which outcome did it give?
A: Its outcome is “inactive; none”.

Q: For `CCOC(=O)/C=C/c1ccc(/C=C/C(=O)OCC)cc1`, which outcome is on record?
A: The outcome was “inactive; none”.

Q: For `Cc1ccc2n[nH]nc2c1`, which outcome is on record?
A: The outcome was “inactive; none”.

Q: With `CCCCCCCCCCCCCC(=O)OCCCC` as the compound, how does the outcome read?
A: The outcome was “inactive; none”.

Q: How did the outcome turn out when `CCOC(=O)c1ccccc1` was run?
A: The outcome was “inactive; none”.

Q: With `CC(C)(c1cc(Br)c(OCCO)c(Br)c1)c1cc(Br)c(OCCO)c(Br)c1` as the compound, how does the outcome read?
A: The outcome was “inactive; none”.

Q: With `CCCCCCCCOc1ccc(C(=O)c2ccccc2)c(O)c1` as the compound, how does the outcome read?
A: Its outcome is “inactive; none”.

Q: With `CCCCCCC1CCC(=O)O1` (configuration not stated) as the compound, how does the outcome read?
A: Its outcome is “inactive; none”.

Q: `COCCO` was tested. Which outcome did it give?
A: The outcome was “inactive; none”.

Q: `O=C(Nc1ccc(Cl)cc1)Nc1ccc(Cl)c(Cl)c1` was tested. Which outcome did it give?
A: The outcome was “inactive; none”.

Q: `CCCCCCCCCCCCCCCCCCOC(=O)CCc1cc(C(C)(C)C)c(O)c(C(C)(C)C)c1` was tested. Which outcome did it give?
A: Its outcome is “inactive; none”.

Q: For `CC(C)c1ccc2cc(C(C)C)ccc2c1`, which outcome is on record?
A: The outcome was “inactive; none”.

Q: With `O=C(Cl)c1ccccc1` as the compound, how does the outcome read?
A: Its outcome is “inactive; none”.

Q: With `CNC(=O)Oc1ccccc1OC(C)C` as the compound, how does the outcome read?
A: Its outcome is “inactive; none”.

Q: How did the outcome turn out when `C1CCC(NC2CCCCC2)CC1` was run?
A: Its outcome is “inactive; none”.

Q: For `O=C(O)C1CCC(C(=O)O)CC1` (configuration not stated), which outcome is on record?
A: The outcome was “inactive; none”.

Q: `COC(=O)c1cccc(C)c1S(=O)(=O)NC(=O)Nc1nc(OCC(F)(F)F)nc(N(C)C)n1` was tested. Which outcome did it give?
A: Its outcome is “inactive; none”.

Q: `COC(=O)CCCCC(=O)OC` was tested. Which outcome did it give?
A: The outcome was “inactive; none”.

Q: Which outcome does the source give for `CC1(C)C(C=C(Cl)Cl)C1C(=O)OC(C#N)c1cccc(Oc2ccccc2)c1` (configuration not stated) here?
A: The outcome was “inactive; none”.

Q: For `CCCCCN(CCCCC)CCCCC`, which outcome is on record?
A: The outcome was “inactive; none”.

Q: For `O=S(=O)(O)c1ccccc1Nc1ccc(C(=C2C=CC(=Nc3ccccc3)C=C2)c2ccc(Nc3ccccc3)cc2)cc1`, which outcome is on record?
A: Its outcome is “inactive; none”.

Q: How did the outcome turn out when `COC(=O)C(C)O` (configuration not stated) was run?
A: The outcome was “inactive; none”.

Q: `c1ccc(CNc2ncnc3c2ncn3C2CCCCO2)cc1` (configuration not stated) was tested. Which outcome did it give?
A: Its outcome is “inactive; none”.

Q: For `ClC1(Cl)C2(Cl)C3(Cl)C4(Cl)C(Cl)(Cl)C5(Cl)C3(Cl)C1(Cl)C5(Cl)C24Cl` (configuration not stated), which outcome is on record?
A: The outcome was “inactive; none”.

Q: How did the outcome turn out when `CCc1ccc(Br)cc1` was run?
A: Its outcome is “inactive; incomplete”.

Q: With `CN(C)Cc1cc(CN(C)C)c(O)c(CN(C)C)c1` as the compound, how does the outcome read?
A: The outcome was “inactive; none”.

Q: For `CC(=O)CC(=O)N(C)C`, which outcome is on record?
A: The outcome was “inactive; none”.

Q: Which outcome does the source give for `Nc1c(N=Nc2ccc([N+](=O)[O-])cc2)c(S(=O)(=O)O)cc2cc(S(=O)(=O)O)c(N=Nc3ccccc3)c(O)c12` here?
A: The outcome was “inactive; none”.

Q: For `Cc1cccc(C(=O)O)c1O`, which outcome is on record?
A: Its outcome is “inactive; none”.

Q: For `C=CS(=O)(=O)O`, which outcome is on record?
A: The outcome was “inactive; none”.

Q: How did the outcome turn out when `C=CC(=O)OCCC(C)OC(=O)C=C` (configuration not stated) was run?
A: Its outcome is “inactive; none”.

Q: Which outcome does the source give for `Cc1cscn1` here?
A: Its outcome is “inactive; none”.

Q: For `O=C(O)c1ccccc1Br`, which outcome is on record?
A: Its outcome is “inactive; none”.

Q: For `C=CCCCCCCCCC=O`, which outcome is on record?
A: Its outcome is “inactive; incomplete”.

Q: `O=P(O)(O)CCCl` was tested. Which outcome did it give?
A: The outcome was “inactive; none”.

Q: `CCSC(C)CC1CC(=O)C(/C(CC)=N/OC/C=C/Cl)=C(O)C1` (configuration not stated) was tested. Which outcome did it give?
A: Its outcome is “inactive; none”.

Q: `O=C=Nc1cccc(C(F)(F)F)c1` was tested. Which outcome did it give?
A: The outcome was “inactive; none”.

Q: Which outcome does the source give for `CCCCCCC` here?
A: The outcome was “inactive; none”.

Q: For `CC(C)Oc1cc(-n2nc(C(C)(C)C)oc2=O)c(Cl)cc1Cl`, which outcome is on record?
A: Its outcome is “inactive; none”.

Q: `CC1CCCCN1CCCOC(=O)c1ccc(Cl)c(Cl)c1` (configuration not stated) was tested. Which outcome did it give?
A: Its outcome is “inactive; none”.

Q: With `CCSC(=O)N(CC)C1CCCCC1` as the compound, how does the outcome read?
A: Its outcome is “inactive; none”.

Q: Which outcome does the source give for `COc1nc(C)nc(NC(=O)NS(=O)(=O)c2ccccc2Cl)n1` here?
A: The outcome was “inactive; none”.

Q: For `COCOC`, which outcome is on record?
A: Its outcome is “inactive; none”.

Same assay, conditions: Rat uterine cytosol ER, 3H-estradiol competitive binding; TestedRange_microM: 0.6-1.2

Q: Which Potency does the source give for `CC(C)CCCCCCc1ccc(O)cc1` here?
A: The Potency was 0.6 µM.

Same assay, conditions: Rat uterine cytosol ER, 3H-estradiol competitive binding; TestedRange_microM: 10-100

Q: `CCCCCCCCCCCCCCCCCC[N+](C)(C)C` was tested. Which outcome did it give?
A: Its outcome is “inactive; irregular”.

Same assay, conditions: Rat uterine cytosol ER, 3H-estradiol competitive binding; TestedRange_microM: 20-70

Q: For `CC(c1ccc(O)cc1)(c1ccc(O)cc1)c1ccc(O)cc1`, which Potency is on record?
A: Its Potency is 18.3 µM.

Same assay, conditions: Rat uterine cytosol ER, 3H-estradiol competitive binding; TestedRange_microM: 25-75

Q: How did the Potency turn out when `O=C(OCc1ccccc1)c1ccc(O)cc1` was run?
A: The Potency was 34.2 µM.
